Literature values in patent US10729793B2, “Method for imaging arthritis” (GUY'S AND ST THOMAS' HOSPITAL NHS FOUNDATION TRUST, priority 2015, dated 2020).
*1 amine or outer side, *2 acyl side, *3 side chain or, on linkers, in order; H or OH if unused. Where a SMILES comes first, the peptide text is derived from it. Bridges are numbered along the chain shown (N, C = ends). Side-chain parts run from the residue outwards. The star is where a group is joined. X1 = C/C(=N/O)C(C)(C)NCCC(CCNC(C)(C)/C(C)=N\O)CCN*; Glutaryl = O=C(CCCC(=O)[*:2])[*:1]; X2 = NC(=O)COCC(=O)NCCOCCOCCOCCN*

How the values were obtained:
[1] = healthy volunteers
[2] = target: αvβ3 integrin (Homo sapiens, UniProt P05106+P06756); conditions: in vitro studies
αvβ3 integrin, sequence (P06756 31-889 limits assumed): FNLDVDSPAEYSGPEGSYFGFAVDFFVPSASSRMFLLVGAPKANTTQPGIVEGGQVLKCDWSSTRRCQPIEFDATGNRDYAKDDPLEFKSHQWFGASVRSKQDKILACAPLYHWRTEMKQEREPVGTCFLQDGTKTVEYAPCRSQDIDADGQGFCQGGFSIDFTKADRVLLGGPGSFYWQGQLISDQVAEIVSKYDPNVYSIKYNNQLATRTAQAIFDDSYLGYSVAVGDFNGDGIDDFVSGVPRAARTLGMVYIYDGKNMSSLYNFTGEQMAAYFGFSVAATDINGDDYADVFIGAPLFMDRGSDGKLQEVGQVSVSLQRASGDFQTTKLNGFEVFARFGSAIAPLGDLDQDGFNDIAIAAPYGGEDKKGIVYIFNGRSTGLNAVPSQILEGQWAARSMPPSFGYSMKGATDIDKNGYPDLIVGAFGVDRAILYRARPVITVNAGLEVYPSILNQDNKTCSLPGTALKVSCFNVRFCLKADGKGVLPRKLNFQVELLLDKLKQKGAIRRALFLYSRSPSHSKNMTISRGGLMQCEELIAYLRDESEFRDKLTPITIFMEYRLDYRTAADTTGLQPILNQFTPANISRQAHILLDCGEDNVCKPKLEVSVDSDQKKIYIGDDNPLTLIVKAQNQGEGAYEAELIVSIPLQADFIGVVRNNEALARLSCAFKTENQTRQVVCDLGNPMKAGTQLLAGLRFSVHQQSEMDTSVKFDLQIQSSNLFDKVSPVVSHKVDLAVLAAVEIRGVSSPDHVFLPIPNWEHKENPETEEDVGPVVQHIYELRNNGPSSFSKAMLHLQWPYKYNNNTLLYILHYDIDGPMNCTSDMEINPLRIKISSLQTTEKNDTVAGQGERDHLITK
αvβ3 integrin, sequence (P06756 891-1048 partner limits assumed): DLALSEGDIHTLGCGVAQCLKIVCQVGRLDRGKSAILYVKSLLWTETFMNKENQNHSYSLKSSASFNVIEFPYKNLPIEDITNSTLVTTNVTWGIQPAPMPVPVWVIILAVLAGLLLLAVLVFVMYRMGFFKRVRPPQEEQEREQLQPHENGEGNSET
αvβ3 integrin, sequence (P05106 27-788): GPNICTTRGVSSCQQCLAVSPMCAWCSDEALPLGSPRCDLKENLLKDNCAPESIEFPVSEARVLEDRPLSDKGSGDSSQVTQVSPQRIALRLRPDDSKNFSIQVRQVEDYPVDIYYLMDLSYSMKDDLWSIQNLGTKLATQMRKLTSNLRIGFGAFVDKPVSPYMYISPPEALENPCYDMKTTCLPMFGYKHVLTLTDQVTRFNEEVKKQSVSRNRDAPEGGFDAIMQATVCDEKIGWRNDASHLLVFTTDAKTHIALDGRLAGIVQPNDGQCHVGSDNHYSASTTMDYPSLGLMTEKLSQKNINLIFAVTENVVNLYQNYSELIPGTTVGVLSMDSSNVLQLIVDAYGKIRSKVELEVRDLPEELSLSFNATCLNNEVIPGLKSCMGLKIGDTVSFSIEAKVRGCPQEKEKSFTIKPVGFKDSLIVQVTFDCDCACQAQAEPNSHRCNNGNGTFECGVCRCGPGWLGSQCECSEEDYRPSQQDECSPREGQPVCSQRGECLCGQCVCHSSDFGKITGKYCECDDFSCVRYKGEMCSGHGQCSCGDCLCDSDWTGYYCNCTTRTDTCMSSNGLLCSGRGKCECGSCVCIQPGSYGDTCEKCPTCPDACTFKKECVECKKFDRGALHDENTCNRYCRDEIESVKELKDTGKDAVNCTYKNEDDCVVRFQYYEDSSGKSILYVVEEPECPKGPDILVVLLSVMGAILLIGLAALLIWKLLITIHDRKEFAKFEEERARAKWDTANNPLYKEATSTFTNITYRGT

[3] = 10 subjects, at 4 months

mean elimination half-life [1]: approximately one
binding affinity for the αvβ3 integrin [2]: high binding affinity
antibodies to the peptide (immunogenicity) [3]: no detectable antibodies
SMILES: C/C(=N/O)C(C)(C)NCCC(CCNC(=O)CCCC(=O)NCCCC[C@@H]1NC(=O)CSC[C@@H](C(=O)NCCOCCOCCOCCNC(=O)COCC(N)=O)NC(=O)[C@H](Cc2ccccc2)NC(=O)[C@@H]2CSSC[C@H](NC1=O)C(=O)N[C@@H](CCCNC(=N)N)C(=O)NCC(=O)N[C@@H](CC(=O)O)C(=O)N2)CCNC(C)(C)/C(C)=N\O (stereo partly drawn) [NC100692, maraciclatide] ({CH2CO}-K([Glutaryl-X1])CRGDCFC-X2; disulfide 2-6; thioether N-8)
